Assay results taken from patent US8673935B2, “Drugs for the treatment of sarcogylcanopathies” (Genethon, priority 2006, dated 2014).
Where a SMILES comes first, the peptide text is derived from it. The star is where a group is joined. Cbz = O=C(OCc1ccccc1)*

Experiments:
[1] = system: mutant Q11E β-sarcoglycan; assay: Quadritransfected cell model: immunohistochemical labelling of mutant Q11E β-sarcoglycan; type: cell-based, human; details: dMJ 5, 50 or 100 μM; FIG. 12C
Procedure: (§1) A second aspect of the invention relates to the assay used for in vitro assessment of the efficacy of inhibitors of the endoplasmic reticulum associated degradation (ERAD) pathway, used for the treatment of sarcoglycanopathies. This assay consists of the following steps: • co-transfection of cells with the four sarcoglycan genes (γ-, α-, β- and δ-), of which one carries the mutation to be tested; • incubation for several hours in the presence of the inhibitor; • localisation of the sarcoglycan complex.
C/Immunohistochemical labelling of β-sarcoglycan in cells quadritransfected with the three α-, γ- and δ-sarcoglycans and mutant Q11E β-sarcoglycan with or without 1-deoxymannojirimycin (dMJ) 5, 50 or 100 μM.
B/Immunohistochemical labelling of β-sarcoglycan in cells quadritransfected with the three α-, γ- and δ-sarcoglycans and mutant Q11E β-sarcoglycan with or without kifunensin 5 μM.
(§2) Cross-sections were dried, then rehydrated in PBS or fixed cells were treated for 20 min with 1% triton in PBS, then incubated for 30 min at room temperature (RT) in PBS containing 15% foetal calf serum. […]

[2] = system: mutant R77C α-sarcoglycan; assay: Quadritransfected cell model: membrane targeting of mutant R77C α-sarcoglycan, immunohistochemical labelling; type: cell-based, human
Procedure: as §1
(§3) Cross-sections were dried, then rehydrated in PBS or fixed cells were treated for 20 min with 1% triton in PBS, then incubated for 30 min at room temperature (RT) in PBS containing 15% foetal calf serum. Cross-sections were incubated with polyclonal anti-sarcoglycan antibodies (α-sarcoglycan: dilution 1/1000, targeting amino acids 366-379 of human α-sarcoglycan; β-sarcoglycan: dilution 1/20, NCL-b-SARC (Novocastra); γ-sarcoglycan: dilution 1/20, NCL-g-SARC (Novocastra); dystrophin: dilution 1/20, NCL-DYS2 (Novocastra); and calreticulin: dilution 1/70, ab4109 (Abcam)) for 1 to 2 hours at RT then rinsed 3 times in PBS. […] Cross-sections were then rinsed three times in PBS, mounted with fluoromount-G (Southern Biotech 0100-01) and then observed with a confocal microscope (Leica). Immunohistochemical analysis of human biopsy specimens was performed as described in Hackman et al. (9).
NIH3T3 or 911 cells were grown in Dulbecco's Modified Eagle Medium supplemented with glutamine, gentamicin and 10% foetal calf serum. Cells were transfected using […] Fugene (ROCHE) per 1 μg plasmid. 0.5 μg of each plasmid (α-SG or α-SG-R77C and β-SG, γ-SG, δ-SG) was used per well in 6-well dishes. For treatment by inhibitors, 43 hours after transfection cells were incubated for 5 hours with either the mannosidase inhibitor (kifunensin 5 μM, VWR) or the proteasome inhibitor (MG132 5 μM diluted in DMSO, Sigma). Cells were then rinsed in PBS and fixed with 3.7% formaldehyde in PBS for 15 min at RT, and rinsed three more times in PBS before immunohistochemical labelling. […]

[3] = system: mutant E262K δ-sarcoglycan; assay: Quadritransfected cell model: immunohistochemical labelling of mutant E262K δ-sarcoglycan; type: cell-based, human; details: dMJ 5 or 100; FIG. 12B
Procedure: as §1
B/Immunohistochemical labelling of δ-sarcoglycan in cells quadritransfected with the three α-, β- and γ-sarcoglycans and mutant E262K δ-sarcoglycan with or without 1-deoxymannojirimycin (dMJ) 5 or 100
FIG. 13: A/Immunohistochemical labelling of δ-sarcoglycan in cells quadritransfected with the three α-, β- and γ-sarcoglycans and mutant E262K δ-sarcoglycan with or without kifunensin 5 μM.
as §2

[4] = system: mutant α-sarcoglycan in Sgca−/− muscle; assay: Intramuscular inhibitor in Sgca−/− mice injected with AAV-SGCA77C vector: α-sarcoglycan labelling of muscle; type: in vivo, mouse; details: AAV-SGCA77C in tibialis anterior, 10 μM kifunensin intramuscular over one week, FIG. 11
Procedure: as §3
The rAAV2/1 viral preparations were injected (10^10 viral genomes (vg) in 30 μl total volume) in the left tibialis anterior muscle of Sgca−/− mice. On days 20, 22, 25 and 27 after injection, 10 μM kifunensin or 20 μM MG132 were injected into the muscle (i.e. either twice or 4 times the concentrations used in vitro to take into account diffusion within the muscle). One day prior to sacrifice (day 27), mice were injected intraperitoneally with Evans blue dye. […]

[5] = cited from earlier work

Structure (SMILES): OC[C@H]1NC[C@@H](O)[C@@H](O)[C@@H]1O [1-deoxymannojirimycin]
- restoration for mutation Q11E on sub-unit β [1]: confirmed our working hypothesis
- membrane targeting of mutant α-sarcoglycan (R77C) ([2]; 100 μM 1-deoxymannojirimycin, FIG. 12A): efficacy of this substance for restoring membrane targeting
- restoration for mutation E262K on sub-unit δ [3]: confirmed our working hypothesis

Structure (SMILES): CC(C)C[C@@H](C=O)NC(=O)[C@H](CC(C)C)NC(=O)[C@H](CC(C)C)NC(=O)OCc1ccccc1 [MG132] (Cbz-Leu-Leu-Leu-aldehyde)
- membrane targeting of mutant α-sarcoglycan (R77C) ([2]; MG132 5 μM, 5 hours, 43 hours after transfection, NIH3T3 or 911 cells, FIG. 9): restored membrane targeting

Structure (SMILES): O=C1N[C@@H]2[C@@H](O)[C@@H](O)[C@H](O)[C@@H](CO)N2C1=O [kifunensin, Kifunensin]
- intracellular α-sarcoglycan aggregates in muscle [4]: absence of aggregates
- membrane targeting of mutant α-sarcoglycan (R77C) ([2]; kifunensin 5 μM, 5 hours, 43 hours after transfection, NIH3T3 or 911 cells, FIG. 10): restore membrane targeting
- water solubility [5]: water-soluble
